Laboratory results as given in ChEMBL document CHEMBL3271967, “Evidence for separate peptide sequences related to the lipolytic and magnesium-accumulating activities of ACTH. Analogy with adrenergic receptors” (J Med Chem, 1977).
Activity calls are given as the source filed them. The rule behind the calls is not given here. Residues, ends and D or L forms follow the SMILES beside them.

Key:
Rattus norvegicus [1] = organism: Rattus norvegicus; test: Induction of magnesium accumulation in rat adipocyte plasma membrane vesicles assessed as increase of intravesicular magnesium level per 30 mins at 1 x 10^-5 M by fluorescence assay; format: functional, cell membranes
Rattus norvegicus [2] = organism: Rattus norvegicus; test: Induction of magnesium accumulation in rat adipocyte plasma membrane vesicles assessed as increase of magnesium level per gram of protein per 30 mins at 1 x 10^-5 M by fluorescence assay; format: functional, cell membranes
Rattus norvegicus [3] = organism: Rattus norvegicus; test: Induction of magnesium accumulation in rat adipocyte plasma membrane vesicles assessed as increase of magnesium level per gram of protein per 30 mins at 5 x 10^-8 M by fluorescence assay; format: functional, cell membranes
Rattus norvegicus [4] = organism: Rattus norvegicus; test: Induction of magnesium accumulation in rat adipocyte plasma membrane vesicles assessed as increase of intravesicular magnesium level per 30 mins at 5 x 10^-8 M by fluorescence assay; format: functional, cell membranes
Lipid bilayer = test: Lipolytic activity in isolated rat adipocytes assessed as fatty acid release at 0.5 to 100 nmol/ml
Rattus norvegicus [5] = organism: Rattus norvegicus; test: Induction of magnesium accumulation in rat adipocyte plasma membrane vesicles assessed as increase of magnesium level per gram of protein per 30 mins at 2 x 10^-4 M by fluorescence assay; format: functional, cell membranes
Rattus norvegicus [6] = organism: Rattus norvegicus; test: Induction of magnesium accumulation in rat adipocyte plasma membrane vesicles assessed as increase of intravesicular magnesium level per 30 mins at 2 x 10^-4 M by fluorescence assay; format: functional, cell membranes
Rattus norvegicus [7] = organism: Rattus norvegicus; test: Induction of magnesium accumulation in rat adipocyte plasma membrane vesicles assessed as increase of intravesicular magnesium level per 30 mins at 1 x 10^-5 M by fluorescence assay in presence of beta-adrenergic antagonist propranolol; format: functional, cell membranes
Rattus norvegicus [8] = organism: Rattus norvegicus; test: Induction of magnesium accumulation in rat adipocyte plasma membrane vesicles assessed as increase of magnesium level per gram of protein per 30 mins at 1 x 10^-5 M by fluorescence assay in presence of beta-adrenergic antagonist propranolol; format: functional, cell membranes
Rattus norvegicus [9] = organism: Rattus norvegicus; test: Induction of magnesium accumulation in rat adipocyte plasma membrane vesicles assessed as increase of magnesium level per gram of protein per 30 mins at 1 x 10^-5 M by fluorescence assay in presence of alpha-adrenergic antagonist phentolamine; format: functional, cell membranes
Rattus norvegicus [10] = organism: Rattus norvegicus; test: Induction of magnesium accumulation in rat adipocyte plasma membrane vesicles assessed as increase of intravesicular magnesium level per 30 mins at 1 x 10^-5 M by fluorescence assay in presence of alpha-adrenergic antagonist phentolamine; format: functional, cell membranes

| SMILES | Activity (Rattus norvegicus [1]) [mM] | Activity (Rattus norvegicus [2]) [µmol] | Activity (Rattus norvegicus [3]) [µmol] | Activity (Rattus norvegicus [4]) [mM] | Activity (Lipid bilayer) | further results |
| --- | --- | --- | --- | --- | --- | --- |
| CC(C)NCC(O)c1ccc(O)c(O)c1 (stereo not drawn) | 0.3 | 3.12 |  |  |  |  |
| CSCC[C@H](NC(=O)[C@H](CO)NC(=O)[C@H](Cc1ccc(O)cc1)NC(=O)[C@@H](N)CO)C(=O)N[C@@H](CCC(=O)O)C(=O)N[C@@H](Cc1cnc[nH]1)C(=O)N[C@@H](Cc1ccccc1)C(=O)N[C@@H](CCCNC(=N)N)C(=O)N[C@@H](Cc1c[nH]c2ccccc12)C(=O)NCC(=O)N[C@@H](CCCCN)C(=O)N1CCC[C@H]1C(=O)N[C@H](C(=O)NCC(=O)N[C@@H](CCCCN)C(=O)N[C@@H](CCCCN)C(=O)N[C@@H](CCCNC(=N)N)C(=O)N[C@@H](CCCNC(=N)N)C(=O)N1CCC[C@H]1C(=O)N[C@H](C(=O)N[C@@H](CCCCN)C(=O)N[C@H](C(=O)N[C@@H](Cc1ccc(O)cc1)C(=O)N1CCC[C@H]1C(=O)N[C@@H](CC(N)=O)C(=O)NCC(=O)N[C@@H](C)C(=O)N[C@@H](CCC(=O)O)C(=O)N[C@@H](CC(=O)O)C(=O)N[C@@H](CCC(=O)O)C(=O)N[C@@H](CC(C)C)C(=O)N[C@@H](C)C(=O)N[C@@H](CCC(=O)O)C(=O)N[C@@H](C)C(=O)N[C@@H](Cc1ccccc1)C(=O)N1CCC[C@H]1C(=O)N[C@@H](CC(C)C)C(=O)N[C@@H](CCC(=O)O)C(=O)N[C@@H](Cc1ccccc1)C(=O)O)C(C)C)C(C)C)C(C)C (H-SYSMEHFRWGKPVGKKRRPVKVYPNGAEDELAEAFPLEF-OH) |  |  | 9.78 | 0.94 |  |  |
| CSCC[C@H](NC(=O)[C@H](CO)NC(=O)[C@H](Cc1ccc(O)cc1)NC(=O)[C@@H](N)CO)C(=O)N[C@@H](CCC(=O)O)C(=O)N[C@@H](Cc1cnc[nH]1)C(=O)N[C@@H](Cc1ccccc1)C(=O)N[C@@H](CCCNC(=N)N)C(=O)N[C@@H](Cc1c[nH]c2ccccc12)C(=O)NCC(=O)N[C@@H](CCCCN)C(=O)N1CCC[C@H]1C(=O)N[C@H](C(=O)NCC(=O)N[C@@H](CCCCN)C(=O)N[C@@H](CCCCN)C(=O)N[C@@H](CCCNC(=N)N)C(=O)N[C@@H](CCCNC(=N)N)C(=O)N1CCC[C@H]1C(=O)N[C@H](C(=O)O)C(C)C)C(C)C (H-SYSMEHFRWGKPVGKKRRPV-OH) |  |  | 3.74 | 0.36 | Active |  |
| CC(C)[C@H](NC(=O)[C@H](CCCCN)NC(=O)[C@@H](NC(=O)[C@@H]1CCCN1C(=O)[C@H](CCCNC(=N)N)NC(=O)[C@H](CCCNC(=N)N)NC(=O)[C@H](CCCCN)NC(=O)[C@H](CCCCN)NC(=O)CNC(=O)[C@@H](NC(=O)[C@@H]1CCCN1C(=O)[C@@H](N)CCCCN)C(C)C)C(C)C)C(=O)N[C@@H](Cc1ccc(O)cc1)C(=O)N1CCC[C@H]1C(=O)O (H-KPVGKKRRPVKVYP-OH) |  |  | 8.32 | 0.8 | inactive |  |
| COc1ccc(OC)c(C(O)C(C)N)c1 (stereo not drawn) |  |  |  |  |  | Activity (Rattus norvegicus [5]): 11.1 µmol; Activity (Rattus norvegicus [6]): 1.07 mM |
| NC[C@H](O)c1ccc(O)c(O)c1 | 1.3 | 13.5 |  |  |  | Activity (Rattus norvegicus [7]): 0.85 mM; Activity (Rattus norvegicus [8]): 8.84 µmol; Activity (Rattus norvegicus [9]): 3.85 µmol; Activity (Rattus norvegicus [10]): 0.37 mM |
